Assay results taken from patent US20210253598A1, “ARYL ANNULATED MACROCYCLIC INDOLE DERIVATIVES” (priority 2017, published 2021).
Values joined by “and” are separate entries in the source; they are usually repeats but may differ in a detail not shown here. Equal values may be shown once. Read-outs that look alike come from different tables or passages of the source.

How the values were obtained:
SUDHL5 [1] = test: Induction of caspase-3/7 activity in SUDHL5 cells (Assay 4); assay type: cell-based; conditions: SUDHL5, 3 hours treatment, Caspase-Glo 3/7, median, read-out: Caspase SUDHL5 [M] (median)
Description: (§1) Induction of Caspase-3/7 Activity Upon Treatment of Cells with Selected Compounds
(§2) The BH3-domain of MCL-1 sequesters pro-apoptotic proteins, thereby inhibiting apoptosis. In contrast, MCL-1 inhibitors are expected to antagonize this effect leading to an increase in apoptosis, which can be determined by measuring the activity of caspase-3/7.
(§3) The activity of caspase-3/7 was determined in DLBCL (Diffuse large B-cell lymphoma) cell lines (SUDHL5 and SUDHL10) upon treatment with different compounds, using the Caspase-Glo® 3/7 reagent from Promega (G8092).
(§4) As a control, medium without cells was also added to the plate. Cells were incubated in a humidified incubator at 37° C. overnight.
(§5) Rim wells were excluded. The cells were incubated for 3 hours in a humidified incubator at 37° C. After this incubation, 30 μl of Caspase-Glo® 3/7 reagent (Promega G8092) was added to each well using the Multidrop Combi Reagent Dispenser, followed by 1 hour incubation at 37° C. Finally, luminescence was read at 0.1 ms, with a gain of 3000 using the PHERAstar FS microplate reader (BMG Labtech).
(§6) For the evaluation of the results, the background measured with “medium-only” was subtracted from all other values. Then, the values were normalized to DMSO-only treated cells (every value was divided by the mean of the DMSO control).

MV-4-11 = test: Anti-proliferative effect in MV-4-11 cells, CellTiter-Glo (Assay 7); assay type: cell-based; conditions: MV-4-11, 72 hours incubation, CellTiter-Glo, several values per example, read-out: Antiproli MV-4-11
Description: (§7) Assessment of the Anti-Proliferative Effect of Compounds in Different Cell Lines
(§8) The impact of compounds on the proliferation of different cell lines was assessed using the CellTiter-Glo® Luminescent Cell Viability reagent from Promega (G7573).
(§9) In parallel, cells were plated in a reference (day 0) plate for time zero determination. Cells were incubated in a humidified incubator at 37° C. overnight.
(§10) Rim wells were excluded. The cells were incubated for 72 hours in a humidified incubator at 37° C. The day 0 plate was measured by adding 30 μL/well of CTG solution (CellTiter-Glo® Luminescent Cell Viability reagent, Promega G7573) to time zero wells in the reference plate followed by a 10 minutes incubation and luminescence reading at 0.1 ms. using the PHERAstar FS microplate reader (BMG Labtech).
(§11) After 72 hours incubation, the treated plates were measured in the same way as the day 0 plate mentioned above. The Bella DRC Master Sheet was used to calculate IC50s, with CI=day 0 values and C0=DMSO control values.

SUDHL10 [2] = test: Induction of cytotoxicity in SUDHL10 cells, CellTiter-Glo (Assay 6); assay type: cell-based; conditions: SUDHL10, 5 hours incubation, median, read-out: Cytotox SUDHL10 [M] (median)
Description: (§12) Induction of Cytotoxicity Upon Treatment of Cells with Selected Compounds
(§13) In principle, compounds that induce apoptosis will concomitantly induce cell cytotoxicity. Therefore, cytotoxicity assays were run in parallel in SUDHL5 and SUDHL10 cells.
(§14) As a control, medium without cells was also added to the plate. Cells were incubated in a humidified incubator at 37° C. overnight. […] Rim wells were excluded. The cells were incubated for 5 hours in a humidified incubator at 37° C. After this incubation, 30 μl of CellTiter-Glo® Luminescent Cell Viability reagent (Promega, G7573) was added to each well using the Multidrop Combi Reagent Dispenser, followed by 15 minutes incubation on a shaker at room temperature. Finally, luminescence was read at 0.1 ms, with a gain of 3000 using the PHERAstar FS microplate reader (BMG Labtech).

MCL-1 = MCL-1 (Homo sapiens, UniProt Q07820, K194A/K197A/R201A); test: Protein-protein interaction assay MCL-1/Noxa BH3 peptide, TR-FRET (MCL-1 assay, Assay 1); assay type: binding; conditions: MBP-MCL-1 / Noxa BH3 peptide
Description: The dose-dependent inhibition by the compounds described in this invention of the interaction between MCL-1 and the BH3 domain of Noxa (both human) was determined using a steady state binding competition assay with time-resolved fluorescence energy transfer (TR-FRET) readout. For that purpose MCL-1 (amino acids 173-321, N-terminal fused to Maltose Binding Protein (MBP), SEQ ID 1) and a synthetic Noxa BH3-derived peptide of sequence Biotin-PEG2-PEG2-PAELEVE-Nva-[…]-amide (SEQ ID 2) served as protein receptor and tracer ligand respectively. The MBP-MCL-1 was purchased from Beryllium (Bedford, Mass., USA). The expression and purification of this protein construct has been described elsewhere (DOI:10.1371/journal.pone.0125010). The Noxa BH3-derived peptide can be obtained from e.g. Biosyntan (Berlin, Germany).
For that, 100-fold concentrated DMSO solutions were prepared by serial dilutions (1:3.4) of a 2 mM stock solution in a clear, 384-well microtiter plate (Greiner Bio-One, Frickenhausen, Germany). From there, 50 nl were transferred in a dark test plate (Greiner Bio-One, Frickenhausen, Germany). The assay was initiated by addition of 2 μl of a 2,5-fold concentrated MBP-MCL-1 solution (usually for a 1 nM end concentration in 5 μl reaction volume) in aqueous assay buffer [50 mM Tris/HCl pH 7, 100 mM sodium chloride (NaCl), 50 mM potassium fluoride (KF), 0.005% Tween-20, 2 mM DTT, 0.1% bovine gamma globulin (BGG)] to the compounds in the assay plate. This was followed by a 10-minute incubation step at 22° C. for pre-equilibration of the putative complex between MBP-MCL-1 and the compounds.
The mixture was incubated in the dark for one hour at 22° C. and then overnight at 4° C. The formation of MCL-1/Noxa complexes was determined by measuring the resonance energy transfer of the anti-MBP-Eu-cryptate antibody to the streptavidin-XL665 present in the reaction.
The resulting data (ratio) were normalized, taking 0% inhibition as the mean value of control measurements (usually 32 data points) where all reagents were included. In this case 50 nl DMSO were used instead of compounds. […] IC50 values were determined by regression analysis based on a 4 parameter equation (minimum, maximum, IC50, Hill; Y=Max+(Min−Max)/(1+(X/IC50)^Hill) using the Screener Software (Genedata).

SUDHL5 [3] = test: Anti-proliferative effect in SUDHL5 cells, CellTiter-Glo (Assay 7); assay type: cell-based; conditions: SUDHL5, 72 hours incubation, CellTiter-Glo, median, read-out: Antiproli SUDHL5 [M] (median)
Description: as §7, §8, §9, §10, §11

SUDHL5 [4] = test: Induction of cytotoxicity in SUDHL5 cells, CellTiter-Glo (Assay 6); assay type: cell-based; conditions: Homo sapiens, SU-DHL-5, 5 h, SUDHL5, 5 hours incubation, median, read-out: Cytotox SUDHL5 [M] (median)
Description: as §12, §13, §14

A2780 = test: Anti-proliferative effect in A2780 cells, CellTiter-Glo (Assay 7); assay type: cell-based; conditions: A2780, 72 hours incubation, CellTiter-Glo, several values per example, read-out: Antiproli A2780
Description: as §7, §8, §9, §10, §11

SUDHL10 [5] = test: Induction of caspase-3/7 activity in SUDHL10 cells (Assay 4); assay type: cell-based; conditions: SUDHL10, 3 hours treatment, Caspase-Glo 3/7, median, read-out: Caspase SUDHL10 [M] (median)
Description: as §1, §2, §3, §4, §5, §6

Sequence of MCL-1 (Q07820 173-321 K194A/K197A/R201A, looked up): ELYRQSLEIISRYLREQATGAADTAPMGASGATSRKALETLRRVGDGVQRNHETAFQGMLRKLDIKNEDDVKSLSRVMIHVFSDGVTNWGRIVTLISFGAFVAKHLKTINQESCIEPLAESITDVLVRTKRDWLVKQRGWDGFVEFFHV

| IC50 (MCL-1; MCL-1 Assay [M] (median)) | Structure (SMILES) | EC50 (SUDHL5 [1]; Homo sapiens, SU-DHL-5, 3 h) | IC50 (MV-4-11; Homo sapiens, MV4-11, 72 h) | IC50 (SUDHL10 [2]; Homo sapiens, SU-DHL10, 5 h) | IC50 (SUDHL5 [3]; Homo sapiens, SU-DHL-5, 72 h) | IC50 (SUDHL5 [4]) | IC50 (A2780; Homo sapiens, A2780, 72 h) | EC50 (SUDHL10 [5]; Homo sapiens, SU-DHL10, 3 h) | EC50 (SUDHL5 [1]) | IC50 (MV-4-11) | IC50 (SUDHL10 [2]) | IC50 (MCL-1; median, read-out: MCL-1 Assay [M] (median)) | IC50 (SUDHL5 [3]) | IC50 (A2780) | EC50 (SUDHL10 [5]) |
| --- | --- | --- | --- | --- | --- | --- | --- | --- | --- | --- | --- | --- | --- | --- | --- |
| 3.1e-08 M | Cc1c2c(nn1C)CN(C(=O)NCC1CCOCC1)Cc1ccccc1Cn1c(C(=O)O)c(CCCOc3cccc4ccccc34)c3cccc-2c31 (racemic) [Example 27, (rac)-4,5-Dimethyl-17-[3-(naphthalen-1-yloxy)propyl]-8-[(tetrahydro-2H-pyran-4-ylmethyl)-carbamoyl]-7,8,9,14-tetrahydro-5H-indolo[1,7-bc]pyrazolo[4,3-e][2,8]benzodiazacycloundecine-16-carboxylic Acid] | > 3.3e-05 M | 24.8 µM | > 3.3e-05 M | 2.7e-05 M | > 3.3e-05 M | 31.4 µM | > 3.3e-05 M |  |  |  |  |  |  |  |
| 1.8e-07 M | COc1cc(CNC(=O)N2Cc3ccccc3Cn3c(C(=O)O)c(CCCOc4cccc5ccccc45)c4cccc(c43)-c3c(nn(C)c3C)C2)cc(OC)c1OC (racemic) [Example 20, (rac)-4,5-Dimethyl-17-[3-(naphthalen-1-yloxy)propyl]-8-[(3,4,5-trimethoxybenzyl)carbamoyl]-7,8,9,14-tetrahydro-5H-indolo[1,7-bc]pyrazolo[4,3-e][2,8]benzodiazacycloundecine-16-carboxylic Acid] | > 3.3e-05 M | 10.8 µM | > 3.3e-05 M | 1.2e-05 M | > 3.3e-05 M | 13.7 µM | > 3.3e-05 M |  |  |  |  |  |  |  |
|  | CCc1c2c(nn1C)COCc1ccccc1Cn1c(C(=O)O)c(CCCOc3cccc4ccccc34)c3ccc(F)c-2c31 (racemic) [Example 70, (rac)-14-Ethyl-15-fluoro-13-methyl-1-(3-(naphthalen-1-yloxy)propyl)-4,9,11,13-tetrahydrobenzo[3,4]pyrazolo[4′,3′:9,10][1]oxa[6]azacycloundecino[8,7,6-hi]indole-2-carboxylic Acid] |  |  |  |  |  |  |  | 1.6e-06 M | 2.41 µM and 2.27 µM | 6.1e-06 M | 2.1e-09 M | 2.2e-06 M | 22.8 µM and 22.5 µM | 8.6e-06 M |
| 1.8e-08 M | CCc1c2c(nn1C)COCc1ccccc1Cn1c(C(=O)O)c(CCCOC3CCCc4ccccc43)c3ccc(F)c-2c31 (racemic) [Example 92, (rac)-14-Ethyl-15-fluoro-13-methyl-1-(3-((1,2,3,4-tetrahydronaphthalen-1-yl)oxy)propyl)-4,9,11,13-tetrahydrobenzo[3,4]pyrazolo[4′,3′:9,10][1]oxa[6]azacycloundecino[8,7,6-hi]indole-2-carboxylic Acid] | 1.5e-05 M | 6.15 µM | > 3.3e-05 M | > 3.3e-05 M | 8.1e-06 M | > 33 µM | > 3.3e-05 M |  |  |  |  |  |  |  |
|  | Cc1c2c(nn1C)COCc1ncccc1Cn1c(C(=O)O)c(CCCOc3cccc4ccccc34)c3cccc-2c31 [Example 07] |  |  |  |  |  |  |  |  | 5.15 µM and 5.5 µM |  |  |  | 29.6 µM and > 33 µM |  |
|  | Cc1c2c(nn1C)CNCc1ccccc1Cn1c(C(=O)O)c(CCCOc3cccc4ccccc34)c3cccc-2c31 (racemic) [Example 11, (rac)-4,5-Dimethyl-17-[3-(naphthalen-1-yloxy)propyl]-7,8,9,14-tetrahydro-5H-indolo[1,7-bc]pyrazolo[4,3-e][2,8]benzodiazacycloundecine-16-carboxylic Acid] | 5.6e-06 M | 7.59 µM | 1.5e-05 M | 7.2e-06 M | 5.6e-06 M | 11.8 µM | 1.6e-05 M |  | 7.42 µM |  |  |  | 12.2 µM |  |
|  | Cc1c2c(nn1C)COCc1ccccc1Cn1c(C(=O)O)c(CCCOc3cccc4ccccc34)c3ccc(F)c-2c31 (racemic) [Example 67, (rac)-15-Fluoro-13,14-dimethyl-1-(3-(naphthalen-1-yloxy)propyl)-4,9,11,13-tetrahydrobenzo[3,4]pyrazolo[4′,3′:9,10][1,6]oxaazacycloundecino[8,7,6-hi]indole-2-carboxylic Acid] | 2.2e-06 M | 3.08 µM | 4.9e-06 M | 2.4e-06 M | 1.8e-06 M | 20.5 µM | 5.9e-06 M |  |  |  |  |  |  |  |

| Structure (SMILES) | IC50 (MCL-1; MCL-1 Assay [M] (median)) | EC50 (SUDHL5 [1]; Homo sapiens, SU-DHL-5, 3 h) | IC50 (MV-4-11; Homo sapiens, MV4-11, 72 h) | IC50 (SUDHL10 [2]; Homo sapiens, SU-DHL10, 5 h) | IC50 (SUDHL5 [3]; Homo sapiens, SU-DHL-5, 72 h) | IC50 (SUDHL5 [4]) | IC50 (A2780; Homo sapiens, A2780, 72 h) | EC50 (SUDHL10 [5]; Homo sapiens, SU-DHL10, 3 h) | EC50 (SUDHL5 [1]) | IC50 (MV-4-11) | IC50 (SUDHL10 [2]) | IC50 (MCL-1; median, read-out: MCL-1 Assay [M] (median)) | IC50 (SUDHL5 [3]) | IC50 (A2780) | EC50 (SUDHL10 [5]) |
| --- | --- | --- | --- | --- | --- | --- | --- | --- | --- | --- | --- | --- | --- | --- | --- |
| Cc1c2c(nn1C)CN(S(=O)(=O)CCN1CCOCC1)Cc1ccccc1Cn1c(C(=O)O)c(CCCOc3cccc4ccccc34)c3cccc-2c31 (racemic) [Example 30, (rac)-4,5-Dimethyl-8-{[2-(morpholin-4-yl)ethyl]sulfonyl}-17-[3-(naphthalen-1-yloxy)propyl]-7,8,9,14-tetrahydro-5H-indolo[1,7-bc]pyrazolo[4,3-e][2,8]benzodiazacycloundecine-16-carboxylic Acid] | 3.7e-08 M | 8.5e-06 M | 7.85 µM | 2.9e-05 M | 4.6e-06 M | 8.6e-06 M | 17.1 µM | > 3.3e-05 M |  |  |  |  |  |  |  |
